Reference: US11696913B2, “Prolonged ectoparasite-controlling agent for animal” (MITSUI CHEMICALS AGRO, INC., priority 2017, dated 2023)

Key:
[1] = test system: Ctenocephalides felis; assay: In vitro contact test with fleas; conditions: read-out: insecticidal activity; for pest or weed control at 1 µg/cm2, 1 µg/cm2: dose 1 μg/cm^2, dead or moribund fleas after 48 h; for pest or weed control at 0.2 µg/cm2, 0.2 µg/cm2: dose 0.2 μg/cm^2, dead or moribund fleas after 48 h
Method: In Vitro Contact Tests with Fleas
In vitro contact tests with fleas were conducted with adult male and female cat fleas (Ctenocephalides felis).
To coat the test tubes, the test substance was dissolved and diluted in acetone p.a. to the desired concentration. The solution was then homogeneously applied to the inner wall and base of a glass tube by turning and rocking on an orbital shaker until complete evaporation of the solvent. For example, with a 900 ppm solution of test substance, an area-based dose of 5 μg/cm^2 was achieved.
Upon complete evaporation of the solvent, 5-10 adult cat fleas (Ctenocephalides felis) were added to each coated tube, which was then sealed with a perforated plastic lid and incubated in a horizontal position at room temperature and ambient humidity. After 48 h, insecticidal activity against fleas was determined. For this, fleas were collected to the base of the tube by knocking the tube, and the tube was allowed to stand upright. Fleas which remained motionless at the base or moved in an uncoordinated manner were considered dead or moribund, respectively.
A substance was judged to have good insecticidal activity against Ctenocephalides felis when at least 80% of the fleas were found dead or moribund at a dose of the substance of μg/cm^2. 100% insecticidal activity means that all the fleas were found dead or moribund. 0% insecticidal activity means that no fleas were found dead or moribund.

[2] = test system: Rhipicephalus (Boophilus) microplus; assay: In vitro injection test with Rhipicephalus (Boophilus) microplus (BOOPMI Inj); conditions: 168 h, laid fertile eggs after 7 days, read-out: acaricidal activity; for pest or weed control at 0.0008 mg: dose 0.8 μg/animal injected; for pest or weed control at 32 ng: dose 0.032 μg/animal injected; for pest or weed control at 0.00016 mg: dose 0.16 μg/animal injected
Method: In Vitro Injection Test with Rhipicephalus (Boophilus) Microplus (BOOPMI Inj)
To produce an appropriate mixture for injection, the test substance was dissolved and diluted in dimethyl sulphoxide to the desired concentration. 1 μl of the test mixture was injected into the abdomen of each of 5 engorged adult female cattle ticks (Rhipicephalus (Boophilus) microplus). The ticks were transferred into petri dishes and maintained in a climate-controlled room [28° C., 85% rel. hum.].
Acaricidal activity against cattle ticks was assessed after 7 days by assessment of laid fertile eggs. […] An acaricidal activity of 100% means that none of the ticks laid eggs or laid eggs were infertile; 0% means that the ticks laid eggs, and all the eggs were fertile.

[3] = test system: Ctenocephalides felis; assay: Ctenocephalides felis in-vitro feeding test with fleas (CTECFE oral); conditions: 48 hours, read-out: insecticidal feeding activity; for pest or weed control at 4 ppm: dose 4 ppm in citrated cattle blood; for pest or weed control at 0.8 ppm: dose 0.8 ppm in citrated cattle blood; for pest or weed control at 0.16 ppm: dose 0.16 ppm in citrated cattle blood
Method: Ctenocephalides felis In-Vitro Feeding Test with Fleas (CTECFE Oral)
To prepare a test blood mixture for feeding fleas, the test substance was dissolved in dimethyl sulphoxide and diluted with citrated cattle blood to the desired concentration.
To assemble the test set-up, about 20 unfed adult male and female cat fleas
(Ctenocephalides felis) were placed in a chamber which was closed at the top and bottom with gauze. A metal cylinder was sealed at one end with parafilm membrane, placed with the sealed base onto the chamber, and filled with the test blood mixture, which could be imbibed by the fleas through the parafilm membrane. The assembled test set-up was maintained at about 37° C. After 48 hours, the insecticidal feeding activity against fleas was determined. 100% means that all of the fleas were killed; 0% means that none of the fleas was killed.

[4] = test system: Dermacentor variabilis; assay: In vitro contact test with adult hard ticks (Dermacentor variabilis); conditions: read-out: acaricidal activity; for pest or weed control at 1 µg/cm2, 1 µg/cm2: dose 1 μg/cm^2, 48 h
Method: (§1) In Vitro Contact Tests with Adult Hard Ticks
(§2) In vitro contact tests with ticks were conducted with adult males and females of Rhipicephalus sanguineus, Ixodes ricinus, or Dermacentor variabilis, or nymphs of Amblyomma americanum.
(§3) For the coating of the test vials, the test substance was dissolved and diluted in acetone p.a. to the desired concentration. The solution was then homogeneously applied to the inner wall and base of a glass vial by turning and rocking on an orbital shaker until complete evaporation of the solvent. For example, with a 900 ppm solution of test substance, an area-based dose of 5 μg/cm^2 was achieved.
(§4) After the solvent was completely evaporated, 5-10 adult ticks were put in each coated test vial, which was then sealed with a perforated plastic lid and incubated in a horizontal position in the dark at room temperature and ambient humidity (Rhipicephalus sanguineus) or in a climate-controlled cabinet (Ixodes ricinus, Dermacentor variabilis, Amblyomma americanum [21° C., 85% rel. hum.]). Acaricidal activity against the respective tick species was determined after 48 h. For this, ticks were collected to the base of the test vial by gentle knocking, and test vials were then incubated on a hotplate at 45-50° C. for no longer than 5 min. Ticks which remained motionless on the base of the test vial or moved uncoordinated without deliberately climbing up to avoid the heat were considered dead or moribund, respectively.
(§5) A substance was judged to have good acaricidal activity against the respective tick species when at least 80% of ticks were found dead or moribund at a dose of the substance of g/cm^2. An acaricidal activity of 100% means all ticks were dead or moribund. An acaricidal activity of 0% means none of the ticks was found dead or moribund.

[5] = test system: Rhipicephalus sanguineus; assay: In vitro contact test with adult hard ticks (Rhipicephalus sanguineus); conditions: read-out: acaricidal activity; for pest or weed control at 0.2 µg/cm2, 0.2 µg/cm2: dose 0.2 μg/cm^2, 48 h; for pest or weed control at 1 µg/cm2, 1 µg/cm2: dose 1 μg/cm^2, 48 h
Method: as §1, §2, §3, §4, §5

[6] = test system: Amblyomma americanum; assay: In vitro contact test with hard ticks (Amblyomma americanum nymphs); conditions: dose 1 μg/cm^2, 48 h, read-out: acaricidal activity
Method: as §1, §2, §3, §4, §5

| Structure (SMILES) | pest or weed control at 1 µg/cm2, 1 µg/cm2 [1] | pest or weed control at 0.0008 mg [2] | pest or weed control at 4 ppm [3] | pest or weed control at 0.2 µg/cm2, 0.2 µg/cm2 [1] | pest or weed control at 0.00016 mg [2] | pest or weed control at 0.8 ppm [3] | further results |
| --- | --- | --- | --- | --- | --- | --- | --- |
| CN(C(=O)c1ccc(S(C)(=O)=O)cc1)c1cccc(C(=O)Nc2c(Br)cc(C(F)(C(F)(F)F)C(F)(F)F)cc2C(F)(F)F)c1 [Compound 7] | 95% | 100% | 95% |  |  |  |  |
| CN(C(=O)c1ccc(C#N)cc1)c1cccc(C(=O)Nc2c(I)cc(C(F)(C(F)(F)F)C(F)(F)F)cc2C(F)(F)F)c1 [Compound 20] | 95% | 100% | 95% | 95% | 100% | 95% | pest or weed control at 32 ng [2]: 100% |
| CN(C(=O)c1ccc([N+](=O)[O-])cc1)c1cccc(C(=O)Nc2c(Br)cc(C(F)(C(F)(F)F)C(F)(F)F)cc2C(F)(F)F)c1 [Compound 5] | 95% | 100% | 95% | 95% | 100% |  | pest or weed control at 1 µg/cm2, 1 µg/cm2 [4]: 90% |
| CS(=O)(=O)c1ccc(C(=O)Nc2cccc(C(=O)Nc3c(I)cc(C(F)(C(F)(F)F)C(F)(F)F)cc3C(F)(F)F)c2)c(Cl)c1 [Compound 40] |  | 100% | 95% |  |  | 95% |  |
| CN(C(=O)c1ccc(C#N)cc1)c1cccc(C(=O)Nc2c(Br)cc(C(F)(C(F)(F)F)C(F)(F)F)cc2C(F)(F)F)c1F [Compound 17] | 95% | 100% | 95% | 95% | 100% | 95% | pest or weed control at 0.04 µg/cm2, 0.04 µg/cm2 ([1]; dose 0.04 μg/cm^2, dead or moribund fleas after 48 h): 95%; pest or weed control at 0.04 µg/cm2, 0.04 µg/cm2 ([5]; dose 0.04 μg/cm^2, 48 h): 90%; pest or weed control at 0.2 µg/cm2, 0.2 µg/cm2 [5]: 90%; pest or weed control at 1 µg/cm2, 1 µg/cm2 [5]: 90%; pest or weed control at 0.2 µg/cm2, 0.2 µg/cm2 ([4]; dose 0.2 μg/cm^2, 48 h): 90%; pest or weed control at 1 µg/cm2, 1 µg/cm2 [4]: 90%; pest or weed control at 32 ng [2]: 100%; pest or weed control at 0.0064 ppm ([3]; dose 0.0064 ppm in citrated cattle blood): 95%; pest or weed control at 0.032 ppm ([3]; dose 0.032 ppm in citrated cattle blood): 95%; pest or weed control at 0.16 ppm [3]: 95% |
| O=C(Nc1c(I)cc(C(F)(C(F)(F)F)C(F)(F)F)cc1C(F)(F)F)c1cccc(NC(=O)c2ccc(Cl)cc2Br)c1 [Compound 42] |  | 100% | 95% |  | 100% | 95% |  |
| CN(C(=O)c1ccc(C#N)cc1Cl)c1cccc(C(=O)Nc2c(Br)cc(C(F)(C(F)(F)F)C(F)(F)F)cc2C(F)(F)F)c1 [Compound 18] |  |  | 95% |  |  | 95% |  |
| CN(C(=O)c1ccc(C#N)nc1)c1cccc(C(=O)Nc2c(Br)cc(C(F)(C(F)(F)F)C(F)(F)F)cc2C(F)(F)F)c1 [Compound 6] | 95% | 100% | 95% | 95% |  | 95% |  |
| O=C(Nc1c(I)cc(C(F)(C(F)(F)F)C(F)(F)F)cc1C(F)(F)F)c1cccc(NC(=O)c2ccc(Cl)cc2Cl)c1 [Compound 32] |  | 100% | 95% |  |  |  |  |
| CN(C(=O)c1ccc(C#N)cc1F)c1cccc(C(=O)Nc2c(Br)cc(C(F)(C(F)(F)F)C(F)(F)F)cc2C(F)(F)F)c1 [Compound 14] | 95% | 100% | 95% | 95% | 100% | 95% | pest or weed control at 0.2 µg/cm2, 0.2 µg/cm2 [5]: 90%; pest or weed control at 1 µg/cm2, 1 µg/cm2 [5]: 90%; pest or weed control at 0.16 ppm [3]: 95% |
| O=C(Nc1cccc(C(=O)Nc2c(Br)cc(C(F)(C(F)(F)F)C(F)(F)F)cc2OC(F)(F)F)c1)c1ccc(Cl)cc1 [Compound 2] |  | 100% |  |  |  |  | pest or weed control at 1 µg/cm2, 1 µg/cm2 [6]: 90% |
| CN(C(=O)c1ccc(C#N)cc1)c1cc(C(=O)Nc2c(Br)cc(C(F)(C(F)(F)F)C(F)(F)F)cc2C(F)(F)F)ccc1F [Compound 8] | 95% |  | 95% | 95% |  | 95% |  |
| CN(C(=O)c1ccc(C#N)cc1)c1cccc(C(=O)Nc2c(Br)cc(C(F)(C(F)(F)F)C(F)(F)F)cc2C(F)(F)F)c1 [Compound 4] | 95% | 100% |  | 95% |  |  | pest or weed control at 1 µg/cm2, 1 µg/cm2 [6]: 90% |
| CN(C(=O)c1ccc(C#N)cc1)c1cccc(C(=O)Nc2c(Br)cc(C(F)(C(F)(F)F)C(F)(F)F)cc2OC(F)(F)F)c1 [Compound 10] | 95% | 100% | 95% | 95% | 100% |  | pest or weed control at 1 µg/cm2, 1 µg/cm2 [5]: 90% |
| O=C(Nc1cccc(C(=O)Nc2c(Br)cc(C(F)(C(F)(F)F)C(F)(F)F)cc2OC(F)(F)F)c1)c1ccc(C(F)(F)F)cc1 [Compound 1] |  | 100% |  |  |  |  | pest or weed control at 1 µg/cm2, 1 µg/cm2 [6]: 90% |
